Laboratory results from patent US20010007675A1, “Cosmetic and dermatological compositions containing aminoalchohol derivatives containing a urea functional group and uses thereof” (L'OREAL, priority 1996, published 2001).

Columns and labels:
[1] = Measurement of the imperceptible water loss (IWL) with an evaporimeter (Servomed); details: compound at 1% in dichloromethane/methanol (2/1 v/v), applied on delipidated stratum corneum; measured 20 hours after application
Experimental: Measurement of the imperceptible water loss (IWL)
This measurement was carried out using an evaporimeter (Servomed) which quantitatively determines the evaporation of water, that is transportation of water by diffusion, from a stratum corneum sample which seals a cylindrical capsule containing water, the whole assembly being placed in a chamber with controlled relative temperature and controlled relative humidity.
Sensors made it possible to measure the partial vapour pressure of water at two points situated at different distances from the sample.
The partial vapour pressure of water gradient between the two points was thus determined and therefore the degree of evaporation in accordance with Fick's law.
This measurement is carried out for:
The compounds were prepared in the proportion of 1% in a dichloromethane/methanol (2/1 v/v) mixture and then applied on pieces of delipidated stratum comeum.
The imperceptible water loss (IWL) for each compound was measured 20 hours after application.

| Compound | I.W.L. (imperceptible water loss) [1] | melting point |
| --- | --- | --- |
| CCCCCCCCCCCCNC(=O)N(C)C[C@H](O)[C@@H](O)[C@H](O)[C@H](O)CO [Example 1, N-dodecylaminocarbonyl-N-methyl-D-glucamine] | −21 +/− 2 | 116.8 °C |
| CCCCCCCCNC(=O)N(C)C[C@H](O)[C@@H](O)[C@H](O)[C@H](O)CO [Example 8, N-octylaminocarbonyl-N-methyl-D-glucamine] | – | 111.4 °C |
| CCCCCCCCCCCC(=O)N(C)C[C@H](O)[C@@H](O)[C@H](O)[C@H](O)CO [Reference A, N-dodecanoyl-N-methyl-D-glucamine] | −11 +/− 3 | – |
| CCCCCCCCCCCCOC(=O)N(C)C[C@H](O)[C@@H](O)[C@H](O)[C@H](O)CO [Reference B, N-dodecyloxycarbonyl-N-methyl-D-lucamine] | −9 +/− 2 | – |
